Measurements: patent US20090130165A1, “MIF Inhibitors” (Cortical Pty Ltd, priority 2005, published 2009)
In brackets after ≈: the same amount, converted by molar mass. Read-outs that look alike come from different tables or passages of the source.

How the values were obtained:
[1] = system: LPS-induced IL-6 production in RAW264.7 mouse macrophage cell line; experiment: Inhibition of LPS-induced production of IL-6 in RAW264.7 macrophages; format: cell-based; settings: 50 uM compound, 100 ng/ml LPS 4 hr, RAW264.7 cells, relative to LPS+DMSO control
Protocol: MIF is an important factor in the innate immune response to toxins such as the bacterial endotoxin lipopolysaccharide (LPS). […] A compound with the ability to inhibit the biological activity of MIF would therefore inhibit the activation of cytokine production by macrophages in response to LPS. The RAW264.7 mouse macrophage cell line was propagated in DMEM/10% foetal calf serum (FCS) at 37° C. in 5% CO2. 24 hr prior to assay cells were seeded in 96-well tissue culture plates. Cells were allowed to adhere for 4 hr prior to transfer to DMEM/0.5% FCS for 18 hr. Cells were then treated with 50 uM compound in DMSO for 30 min prior to stimulation for 4 hr with 100 ng/ml LPS. Cell culture supernatants were then collected from each well and assayed for IL-6 levels by ELISA (R&D Systems) according to the manufacturer's instructions.

[2] = molecular target: T1, immobilized recombinant MIF protein (Homo sapiens, UniProt P14174); experiment: Interaction of compounds with MIF protein by Surface Plasmon Resonance (Biacore S51); format: binding; settings: SPR; for equilibrium dissociation constant (KD) values, in words: immobilized recombinant MIF
T1 sequence (P14174 2-115 limits assumed): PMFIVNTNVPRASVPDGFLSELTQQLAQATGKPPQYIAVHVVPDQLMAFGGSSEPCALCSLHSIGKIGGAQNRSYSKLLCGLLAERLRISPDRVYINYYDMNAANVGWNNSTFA
Protocol: The interaction of compounds with MIF protein was characterized by Surface Plasmon Resonance (SPR) analysis using an S51 (Biacore International AB) automated small molecule biosensor assay system. Recombinant MIF protein was immobilized on a carboxymethyl dextran biosensor chip using amine coupling chemistry. Compound binding to the immobilized MIF protein was measured at 11 concentrations up to 100 uM (in duplicate), with corrections for the DMSO used as a solvent at a final concentration of 5%. The change in SPR output relative to that of a control underivatized reference spot was recorded over time. The affinity and stoichiometry of interaction was calculated using steady state and/or kinetics evaluation methods with software supplied by the manufacturer.

[3] = system: LPS-induced IL-6 production in RAW264.7 mouse macrophage cell line; experiment: Inhibition of LPS-induced production of IL-6 in RAW264.7 macrophages; format: cell-based; settings: RAW264.7 cells, up to 100 μM compound (FIG. 1)
[4] = molecular target: T2, Recombinant human MIF protein (Homo sapiens, UniProt P14174); experiment: Inhibition of MIF tautisomerase activity (L-dopachrome); format: biochemical; settings: mean±standard deviation of 2-4 experiments
T2 sequence (P14174 2-115 limits assumed): T1 sequence (P14174 2-115 limits assumed)
Protocol: MIF protein has the ability in vitro to catalyze the tautisomerization of dopachrome^(15).
Recombinant human MIF protein was pre-incubated with compounds as indicated prior to the addition of L-dopachrome substrate. Tautomerase activity was determined by measurement of die decrease in absorbance at 475 nm after 2 min. […]

[5] = system: C57Bl/6j mice; experiment: In vivo assay of MIF antagonism: murine endotoxic shock model, serum TNF; parameters: species or system mouse; settings: intra-peritoneal, 10, 1 and 0.1 mg/kg at 24 hours and 1 hour before LPS 1 mg/kg (FIG. 3)
Protocol: The activities of compounds were studied in the murine endotoxic shock model. This model has been previously shown to be dependent on MIF^(14). Administration of a compound which inhibits the cytokine activity of MIF would be expected to result hi a reduction in serum level s of the pro-inflammatory cytokine TNF.
Endotoxaemia was induced by intra-peritoneal Injection of C57Bl/6j mice with lipopolysaccharide (LPS) (1 mg/kg) in 200 μl saline. Animals were treated with either a saline solution (control) only, or LPS with vehicle or compounds B1 and A3 in vehicle at doses of 10, 1 and 0.1 mg/kg body weight, administered by intra-peritoncal injection at 24 hours and 1 hour before intra-peritoneal LPS injection. After 1 hour mice were humanely killed by CO2 inhalation then neck dislocation. Serum was obtained from blood obtained by cardiac puncture prior to death and measured for TNF levels by ELISA according to the manufacturer's instructions.

[6] = Lower limits of aqueous solubility by nephelometry; format: physicochemical; settings: phosphate-buffered saline with 0.005% (v/v) P20 and 5% DMSO, aqueous with cosolvent or surfactant or cyclodextrin, kinetic from dmso stock, 0.005% (v/v) P20, 5% DMSO, read-out: Solubility Lower Limit Range
Protocol: Lower limits of aqueous compound solubility were determined in a nepholometer in phosphate-buffered saline containing 0.005% (v/v) P20 and a final concentration of 5% DMSO. Briefly, compounds were initially dissolved in DMSO as a 10 mM stock solution and diluted to 1 mM and 0.5 mM working solutions with neat DMSO. The compounds were then titrated in DMSO and a constant volume of DMSO stock added to filtered PBS/P20 solution so that the final DMSO concentration was 5%. The solubility was then determined in clear, flat-bottom 96-well plates using the nephelometer and reported as the concentration range at which the compound begins to precipitate from solution.

[7] = system: IL-1 induced COX-2 expression in S112 human dermal fibroblasts; experiment: Inhibition of interleukin-1 induction of cyclooxygenase-2 expression in S112 human dermal fibroblasts; format: cell-based; settings: S112 cells, up to 100 μM compound, IL-1 0.1 ng/ml, 6 hours (FIG. 2)
Text: The activity of compounds was studied in a bioassay for MIF-dependent cytokine effects of human S112 dermal fibroblasts. In these cells the induction of the expression of cyclooxygenase-2 (COX-2) protein by interleukin 1 (IL-1) is dependent upon the presence of endogenous MIF^(13). The expression of COX2 proteins is therefore sensitive to depiction of endogenous MIF by neutralizing antibody, gene knockout of targeting with small molecule inhibitors. A compound with the ability to inhibit the biological activity of MIF would therefore inhibit die activation of COX2 expression hi response to IL-1.
S112 human dermal fibroblasts were propagated in RPMI/10% foetal calf serum (FCS). Prior to experimentation, cells were seeded at 10^5 cells/ml in RPMI/0.1% BSA for 18 hours. Cells were treated with recombinant human IL-1 (0.1 ng/ml) and with each compound at concentrations ranging up to 100 μM. A control was treated only with recombinant human TL-1 (0.1 ng/ml) and vehicle (DMSO). After 6 hours, cells were collected and intracellular COX-2 protein determined by permeabilisation flow cytometry. […] Cellular fluorescence was determined using a flow cytometer. At least 5000 events were counted for each reading, each of which was performed in duplicate, and the results expressed in mean fluorescence intensity (MFI) after subtraction of negative control-labelled cell fluorescence.

[8] = immobilized MIF, steady state evaluation, 5% DMSO, read-out: Steady State Method (equilibrium dissociation constant KD)

Compound	solubility [6]	melting point	inhibition at 50 µM [1]	also measured
CCCCSCC(=O)c1ccc2c(c1)CC(=O)N2 [Compound 21, 5-((Butylthio)acetyl)-1,3-dihydro-2H-indol-2-one]	–	–	41 ± 54%	–
CCCCSCC(=O)c1cc2c(cc1Cl)NC(=O)C2 [Compound 20, 5-((Butylthio)acetyl)-6-chloro-1,3-dihydro-2H-indol-2-one]	–	–	59 ± 11%	–
O=C1Cc2cc(C(=O)CSCCCCCCO)c(Cl)cc2N1 [Compound 11, 6-chloro-5-(((6-hydroxyhexyl)thio)acetyl)-1,3-dihydro-2H-indol-2-one]	–	–	48 ± 24%	–
CCCCSCC(=O)c1ccc2[nH]c(=O)oc2c1 [Compound 16, 6-((Butylthio)acetyl)-1,3-benzoxazol-2(3H)-one]	–	–	12 ± 63%	–
CCCCSCC(=O)c1ccc2[nH]c(=O)sc2c1 [Compound 19, 6-((Butylthio)acetyl)-1,3-benzothiazol-2(3H)-one]	–	–	82 ± 13%	kon ([2]; immobilized MIF, association rate, read-out: Kinetics Method Ka (10^3 M^−1s^−1)): 2200 ± 1000 M⁻¹ s⁻¹; Kinetics Method Kd (10^−3 s^−1) ([2]; immobilized MIF, dissociation rate): 6.2 ± 1.2 10^−3 s^−1; Kd ([2]; immobilized MIF, kinetics evaluation, read-out: Kinetics Method Kd): 3.6 ± 1 µM; Kd [2, 8]: 27 ± 2.3 µM; equilibrium dissociation constant (KD) values, in words [2]: low micromolar range; IC50 ([3]; Mus musculus): 20 µM; inhibition of LPS-induced IL-6 production, in words [3]: dose-dependent inhibition; inhibition at 50 µM ([4]; 50 uM compound): 9 ± 4%; inhibition at 100 µM ([4]; 100 uM compound): 17 ± 8%; suppression of LPS-induced serum TNF levels, in words [5]: significant dose-dependent suppression
O=C(O)CCSCC(=O)c1ccc2[nH]c(=O)oc2c1 [Compound 14, 3-((2-Oxo-2-(2-oxo-2,3-dihydro-1,3-benzoxazol-6-yl)ethyl)thio)propanoic acid]	> 140 µg/mL	–	–	–
O=C(O)CCSCC(=O)c1ccc2[nH]c(=O)sc2c1 [Compound 18, 3-((2-Oxo-2-(2-oxo-23-dihydro-1,3-benzothiazol-6-yl)ethyl)thio)propanoic acid]	–	–	49 ± 34%	–
O=C(O)CSCC(=O)c1ccc2[nH]c(=O)[nH]c2c1 [Compound 6, ((2-oxo-2-(2-oxo-2,3-dihydro-1H-benzimidazol-5-yl)ethyl)thio)acetic acid]	67 to 250 µg/mL (≈ 252 to 939 µM)	230 °C (dec.)	–	–
O=C(O)CCSCC(=O)c1ccc2c(c1)CC(=O)N2 [Compound 2]	–	–	–	inhibition of IL-1 induced COX-2 expression, in words [7]: dose-dependent inhibition; suppression of LPS-induced serum TNF levels, in words [5]: significant dose-dependent suppression
O=C(O)CSCC(=O)c1ccc2[nH]c(=O)oc2c1 [Compound 17, ((2-Oxo-2-(2-oxo-2,3-dihydro-1,3-benzoxazol-6-yl)ethyl)thio)acetic acid]	–	–	8 ± 90%	–

The next lines start with results.

solubility [6]	melting point	Compound	inhibition at 50 µM [1]	also measured
18 to 63 µg/mL (≈ 61.4 to 215 µM)	106 to 108 °C	COC(=O)CCSCC(=O)c1ccc2c(c1)CC(=O)N2 [Compound 1, methyl 3-((2-oxo-2-(2-oxo-2,3-dihydro-1H-indol-5-yl)ethyl)thio)propanoate]	13 ± 23%	–
> 140 µg/mL	–	O=C(O)CCSCC(=O)c1ccc2[nH]c(=O)[nH]c2c1 [Compound 4, 3-((2-oxo-2-(2-oxo-2,3-dihydro-1H-benzimidazol-5-yl)ethyl)thio)propanoic acid]	5 ± 49%	Kd [2, 8]: 5.1 µM; equilibrium dissociation constant (KD) values, in words [2]: low micromolar range; suppression of LPS-induced serum TNF levels, in words [5]: significant dose-dependent suppression
–	180 to 181 °C	O=C(CSCCCCCCO)c1ccc2[nH]c(=O)[nH]c2c1 [Compound 10, 5-(((6-hydroxyhexyl)thio)acetyl)-1,3-dihydro-2H-benzimidazol-2-one]	25%	–
–	75 to 77 °C	COC(=O)CCSCC(=O)c1cc2c(cc1Cl)NC(=O)C2 [Compound 12, methyl 3-((2-(6-chloro-2-oxo-2,3-dihydro-1H-indol-5-yl)-2-oxoethyl)thio)propanoate]	60%	–
77 to 250 µg/mL (≈ 249 to 808 µM)	–	O=C(CSCCCCCCO)c1ccc2[nH]c(=O)oc2c1 [Compound 15, 6-(((6-Hydroxyhexyl)thio)acetyl)-1,3-benzoxazol-2(3H)-one]	42 ± 40%	suppression of LPS-induced serum TNF levels, in words [5]: significant dose-dependent suppression
–	86 to 87 °C	CC(=O)OCCCCCCSCC(=O)c1ccc2c(c1)CC(=O)N2 [Compound 8, 6-((2-oxo-2-(2-oxo-2,3-dihydro-1H-indol-5-yl)ethyl)thio)hexyl acetate]	42 ± 11%	–
